Results from US4816448A, “Thermal isomer of difficidin and thermal isomer of oxydifficidin antibacterials” (Merck & Co., Inc., priority 1987, dated 1989).

Tests used:
Salmonella typhimurium = test: MIC, standard in vitro assay (Table I); assay type: cell-based; settings: in most cases
Source text: (§1) Using standard in vitro assay techniques, minimal inhibitory concentrations (MIC) have been determined for the thermal isomer of difficidin and the thermal isomer of oxydifficidin against a number of bacteria.

Serratia marcescens = test: MIC, standard in vitro assay (Table I); assay type: cell-based; settings: in most cases
Source text: as §1

[1] = Isomerization of difficidin at 60° C., HPLC (Example IV); assay type: physicochemical; settings: tetrahydrofuran
Protocol: Difficidin is stored as the potassium salt at pH7 in aqueous methanol solution at -80° C. A 0.67 ml aliquot containing 400 mcg of difficidin was evaporated to an oil and taken up in 0.2 ml of tetrahydrofuran. The sample was heated at 60° C. for 3 days.

S. aureus = test: MIC, standard in vitro assay (Table I); assay type: cell-based, Staphylococcus aureus; settings: in most cases
Source text: as §1

Proteus = test: Antibacterial activity, relative potency; assay type: cell-based; settings: in most cases
Source text: as §1

anaerobic bacteria = test: Antibacterial activity against anaerobic bacteria; assay type: cell-based
P. aeruginosa = test: MIC, standard in vitro assay (Table I); assay type: cell-based, Pseudomonas aeruginosa; settings: Ps. aeruginosa; in most cases
Source text: as §1

aerobic microorganisms = test: Antibacterial activity against aerobic microorganisms; assay type: cell-based; settings: aerobic microorganisms such as Pseudomonas aeruginosa and Staphylococcus aureus
Source text: as §1

[2] = Thermal isomerization of difficidin and oxydifficidin, equilibrium; assay type: physicochemical; settings: for time to reach equilibrium with its thermal isomer / converted to thermal isomer at equilibrium: 60° C.; for converted to thermal isomer at equilibrium: suitable solvent such as water, alcohol or ethyl acetate
Protocol: Alternatively, the thermal isomers of the subject invention can be prepared by converting difficidin and oxydifficidin to the thermal isomer of difficidin and thermal isomer of oxydifficidin, respectively. Difficidin and oxydifficidin can be prepared and purified as described in U.S. Pat. No. 4,545,991. The thermal isomers can be prepared by thermally heating (to about 60° C.) the difficidin and oxydifficidin in a suitable solvent system such as water, alcohol or ethyl acetate. At 60° C., it takes about 24 hours for difficidin and oxydifficidin to reach equilibrium with its thermal isomer. At equilibrium, about 25% of the difficidin has converted to the thermal isomer and about 66% of the oxydifficidin has converted to its thermal isomer. […] The thermal isomer can then be separated from the equilibrium mixture by standard chromatographic techniques.

[3] = Isomerization of oxydifficidin at 60° C., HPLC (Example V); assay type: physicochemical; settings: under argon, tetrahydrofuran
Protocol: Pure oxydifficidin was stored as the potassium salt, pH7, in aqueous methanol solution at -80° C. A 28 ml aliquot, containing 95 mg of antibiotic, was treated with 2 mg. of 2,6-di-t-butyl-phenol and evaporated to 3-4 ml. The concentrate was diluted with tetrahydrofuran to a final volume of 44 ml. The solution was heated under argon at 60° C.

Compound | effectiveness relative to thermal isomer of oxydifficidin (Salmonella typhimurium) | effectiveness relative to thermal isomer of oxydifficidin (Serratia marcescens) | Composition ([1]; 0 days) | Composition ([1]; 3 days) | effectiveness relative to thermal isomer of oxydifficidin (S. aureus) | effectiveness relative to thermal isomer of oxydifficidin (Proteus) | activity against anaerobic bacteria (anaerobic bacteria) | effectiveness relative to thermal isomer of oxydifficidin (P. aeruginosa) | potency against aerobic microorganisms vs thermal isomer of oxydifficidin (aerobic microorganisms) | time to reach equilibrium with its thermal isomer [2] | converted to thermal isomer at equilibrium [2] | isomerization at room temperature [2] | Composition ([3]; 17 hrs., HPLC) | Composition ([3]; 24 hrs., HPLC) | Composition ([3]; 41 hrs., HPLC) | Composition ([3]; time 0, HPLC)
C=C/C=C(\C)CCC1C/C=C\C=C(\C)C(OP(=O)(O)O)CC/C=C/C=C\C=C/CCC(C)C(=C)CC(=O)O1 (stereo not drawn) [thermal isomer of difficidin, (Z,Z,E,Z,Z,)-16-dihydroxyphosphinoxy-5,7-dimethyl-4-methylene-22-((E)-3-methyl-3,5-hexadienyl)oxacyclo-docosa-8,10,12,17,19-pentaen-2-one] | four times more effective | four times more effective | 2% | 24% | four times more effective | four times more effective | active against a wide spectrum of anaerobic bacteria | four times more effective | more potent than the thermal isomer of oxydifficidin |  |  |  |  |  |  | 
difficidin |  |  | 98% | 76% |  |  |  |  |  | about 24 hours | about 25% | some isomerization takes place |  |  |  | 
oxydifficidin [reference compound] |  |  |  |  |  |  |  |  |  | about 24 hours | about 66% | some isomerization takes place | 39% | 36% | 34% | 98%
